Test results: US20160214963A1, “INHIBITORS OF BRUTON'S TYROSINE KINASE” (Beyond Oncology Pharmaceutical LLC, priority 2013, published 2016)
Read-outs that look alike come from different tables or passages of the source. Values belong to the compound of their own block, whether it stands above or below them.

Columns and labels:
CASK = biological target: T1, CASK (Homo sapiens, UniProt O14936); details: 1 μM; cited from earlier work
T1 construct: literature Ambit
T1 sequence (O14936 1-926): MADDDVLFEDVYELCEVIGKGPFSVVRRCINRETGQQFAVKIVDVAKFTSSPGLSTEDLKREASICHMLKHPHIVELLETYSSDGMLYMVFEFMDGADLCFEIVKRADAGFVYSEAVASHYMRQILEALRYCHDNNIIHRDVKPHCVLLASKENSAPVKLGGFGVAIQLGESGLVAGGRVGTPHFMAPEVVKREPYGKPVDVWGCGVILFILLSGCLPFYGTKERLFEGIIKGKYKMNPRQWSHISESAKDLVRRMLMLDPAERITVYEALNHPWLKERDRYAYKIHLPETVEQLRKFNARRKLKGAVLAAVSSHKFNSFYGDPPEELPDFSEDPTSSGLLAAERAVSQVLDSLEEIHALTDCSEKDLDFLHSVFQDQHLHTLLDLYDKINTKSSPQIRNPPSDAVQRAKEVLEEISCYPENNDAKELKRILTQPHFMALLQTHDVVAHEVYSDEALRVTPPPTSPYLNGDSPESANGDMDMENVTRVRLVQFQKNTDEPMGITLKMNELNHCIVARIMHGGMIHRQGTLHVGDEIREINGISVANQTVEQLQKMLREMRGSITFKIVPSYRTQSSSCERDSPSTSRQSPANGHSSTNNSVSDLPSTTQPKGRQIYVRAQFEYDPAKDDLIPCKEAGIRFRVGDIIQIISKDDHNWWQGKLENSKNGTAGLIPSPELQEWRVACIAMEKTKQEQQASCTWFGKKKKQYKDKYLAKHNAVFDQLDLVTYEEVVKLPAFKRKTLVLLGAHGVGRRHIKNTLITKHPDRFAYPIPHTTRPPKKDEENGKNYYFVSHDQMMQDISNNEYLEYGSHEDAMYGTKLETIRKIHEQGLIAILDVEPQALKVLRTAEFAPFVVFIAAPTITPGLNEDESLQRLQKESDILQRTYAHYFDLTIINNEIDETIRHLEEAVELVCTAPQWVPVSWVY

MINK = biological target: T2, MINK (Homo sapiens, UniProt Q8N4C8); details: cited from earlier work
T2 construct: literature Ambit

NEK11 = biological target: T3, NEK11 (Homo sapiens, UniProt Q8NG66); details: 1 μM; cited from earlier work
T3 construct: literature Ambit
T3 sequence (Q8NG66 1-645): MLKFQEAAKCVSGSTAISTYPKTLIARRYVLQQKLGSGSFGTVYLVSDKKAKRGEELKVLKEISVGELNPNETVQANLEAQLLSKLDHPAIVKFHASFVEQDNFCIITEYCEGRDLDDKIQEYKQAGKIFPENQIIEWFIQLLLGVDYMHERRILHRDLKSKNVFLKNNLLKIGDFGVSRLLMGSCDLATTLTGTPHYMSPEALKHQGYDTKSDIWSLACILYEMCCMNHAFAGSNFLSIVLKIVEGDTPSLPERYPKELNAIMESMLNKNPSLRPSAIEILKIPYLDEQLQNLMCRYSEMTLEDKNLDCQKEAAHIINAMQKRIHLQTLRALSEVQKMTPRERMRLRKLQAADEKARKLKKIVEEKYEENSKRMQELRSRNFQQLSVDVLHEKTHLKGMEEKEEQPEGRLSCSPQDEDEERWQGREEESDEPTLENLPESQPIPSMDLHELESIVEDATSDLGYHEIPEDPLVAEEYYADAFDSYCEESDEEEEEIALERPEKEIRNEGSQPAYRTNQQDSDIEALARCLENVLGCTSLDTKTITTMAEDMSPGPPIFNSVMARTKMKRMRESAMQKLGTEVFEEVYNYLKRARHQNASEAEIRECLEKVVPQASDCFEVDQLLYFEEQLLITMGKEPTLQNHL

PDGFRB = biological target: T4, PDGFRB (Homo sapiens, UniProt P09619); details: 1 μM; cited from earlier work
T4 construct: literature Ambit

BMX [1] = biological target: T5, BMX (Homo sapiens, UniProt P51813); details: at Km for ATP; cited from earlier work
T5 sequence (P51813 1-675): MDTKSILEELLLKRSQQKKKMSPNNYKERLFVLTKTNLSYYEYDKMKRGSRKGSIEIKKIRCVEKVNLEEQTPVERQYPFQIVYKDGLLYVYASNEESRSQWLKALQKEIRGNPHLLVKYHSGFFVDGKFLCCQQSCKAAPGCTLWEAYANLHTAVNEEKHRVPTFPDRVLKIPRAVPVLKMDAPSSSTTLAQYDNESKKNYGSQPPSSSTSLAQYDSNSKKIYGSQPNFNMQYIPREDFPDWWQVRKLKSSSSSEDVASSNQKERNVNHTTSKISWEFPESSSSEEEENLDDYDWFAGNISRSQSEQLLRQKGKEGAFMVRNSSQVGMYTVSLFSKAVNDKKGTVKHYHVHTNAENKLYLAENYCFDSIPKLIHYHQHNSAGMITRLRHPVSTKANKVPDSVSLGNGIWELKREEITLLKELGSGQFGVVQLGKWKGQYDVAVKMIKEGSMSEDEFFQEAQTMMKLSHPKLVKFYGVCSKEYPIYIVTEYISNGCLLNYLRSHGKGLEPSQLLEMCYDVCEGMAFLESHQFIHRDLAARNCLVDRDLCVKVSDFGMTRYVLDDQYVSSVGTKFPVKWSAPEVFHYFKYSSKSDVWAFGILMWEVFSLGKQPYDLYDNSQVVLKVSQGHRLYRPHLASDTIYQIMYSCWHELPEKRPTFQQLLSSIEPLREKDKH

BTK = BTK (Homo sapiens, UniProt Q06187); assay: KINOMEscan competition binding assay, Kd
Procedure: (§1) The assay is performed by combining three components: DNA-tagged kinase; immobilized ligand; and a test compound. The ability of the test compound to compete with the immobilized ligand is measured via quantitative PCR of the DNA tag. The kinase-tagged T7 phage strains were prepared in an E. coli host derived from the BL21 strain. E. coli were grown to log-phase and infected with T7 phage and incubated with shaking at 32° C. until lysis. The lysates were centrifuged and filtered to remove cell debris. The remaining kinases were produced in HEK-293 cells and subsequently tagged with DNA for qPCR detection. […] The liganded beads were blocked with excess biotin and washed with blocking buffer (SeaBlock (Pierce), 1% BSA, 0.05% Tween 20, 1 mM DTT) to remove unbound ligand and to reduce non-specific binding. […] All reactions were performed in polystyrene 96-well plates in a final volume of 0.135 ml. […] The kinase concentration in the eluates was measured by qPCR. An 11-point 3-fold serial dilution of each test compound was prepared in 100% DMSO at 100× final test concentration and subsequently diluted to 1× in the assay (final DMSO concentration=1%). […] Binding constants (Kds) were calculated with a standard dose-response curve using the Hill equation: Response=Background+(Signal−Background)/[1+(Kd^Hill Slope/Dose^Hill Slope)]. The Hill Slope was set to −1. […]

JAK3 = JAK3 (Homo sapiens, UniProt P52333); assay: KINOMEscan competition binding assay, Kd
Procedure: as §1

TEC = biological target: T6, TEC (Homo sapiens, UniProt P42680); assay: KINOMEscan competition binding assay, Kd
T6 sequence (P42680 1-631): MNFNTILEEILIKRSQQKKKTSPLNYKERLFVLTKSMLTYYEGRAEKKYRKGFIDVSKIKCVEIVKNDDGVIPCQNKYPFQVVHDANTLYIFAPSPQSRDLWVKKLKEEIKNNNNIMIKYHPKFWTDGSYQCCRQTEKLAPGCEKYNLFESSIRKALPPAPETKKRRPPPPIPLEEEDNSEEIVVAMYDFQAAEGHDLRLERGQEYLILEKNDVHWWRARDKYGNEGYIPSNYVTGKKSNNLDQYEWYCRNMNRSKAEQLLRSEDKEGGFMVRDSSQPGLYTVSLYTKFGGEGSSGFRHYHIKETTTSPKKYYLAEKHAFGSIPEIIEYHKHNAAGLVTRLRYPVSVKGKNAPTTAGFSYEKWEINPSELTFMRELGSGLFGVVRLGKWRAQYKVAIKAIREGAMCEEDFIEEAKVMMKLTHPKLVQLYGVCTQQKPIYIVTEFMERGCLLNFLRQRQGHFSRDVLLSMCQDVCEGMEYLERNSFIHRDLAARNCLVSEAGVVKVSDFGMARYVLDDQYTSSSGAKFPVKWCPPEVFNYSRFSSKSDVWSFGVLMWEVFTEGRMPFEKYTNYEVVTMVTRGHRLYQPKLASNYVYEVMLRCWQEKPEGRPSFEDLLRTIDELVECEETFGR
Procedure: as §1

BMX [2] = biological target: T5, BMX; assay: KINOMEscan competition binding assay, Kd; parameters: DNA tag for qPCR (T7 phage display or DNA tag added after HEK-293 expression); host or cells: E. coli BL21-derived host (T7 phage) or HEK-293
Text: The Hill Slope was set to −1.

arthritis [3] = details: mice; cited from earlier work
[4] = tested on: systemic lupus erythematosus (SLE); details: mouse model of SLE; cited from earlier work
[5] = tested on: CD69 expression in B cells; details: human whole blood; read-out: IC50 IgM-stimulated CD69 expression in B cells; cited from earlier work
[6] = tested on: TNFα release in monocytes; details: read-out: IC50 IgG-FcγR mediated TNFα release; cited from earlier work
[7] = tested on: histamine release in mast cells; details: read-out: IC50 IgE-Fce cross-linking induced histamine release; cited from earlier work
CD69 expression = details: oral 3, 30, 100 mg/kg, cited from earlier work
arthritis [8] = details: 100 mg/kg oral, preventive mode; cited from earlier work
arthritis [9] = details: cited from earlier work
[10] = tested on: hypersensitive immune responses; details: rPCA, 30 mg/kg; cited from earlier work
[11] = tested on: adjuvant-induced arthritis; details: rat AIA, combination; cited from earlier work

T2 sequence (Q8N4C8 whole entry): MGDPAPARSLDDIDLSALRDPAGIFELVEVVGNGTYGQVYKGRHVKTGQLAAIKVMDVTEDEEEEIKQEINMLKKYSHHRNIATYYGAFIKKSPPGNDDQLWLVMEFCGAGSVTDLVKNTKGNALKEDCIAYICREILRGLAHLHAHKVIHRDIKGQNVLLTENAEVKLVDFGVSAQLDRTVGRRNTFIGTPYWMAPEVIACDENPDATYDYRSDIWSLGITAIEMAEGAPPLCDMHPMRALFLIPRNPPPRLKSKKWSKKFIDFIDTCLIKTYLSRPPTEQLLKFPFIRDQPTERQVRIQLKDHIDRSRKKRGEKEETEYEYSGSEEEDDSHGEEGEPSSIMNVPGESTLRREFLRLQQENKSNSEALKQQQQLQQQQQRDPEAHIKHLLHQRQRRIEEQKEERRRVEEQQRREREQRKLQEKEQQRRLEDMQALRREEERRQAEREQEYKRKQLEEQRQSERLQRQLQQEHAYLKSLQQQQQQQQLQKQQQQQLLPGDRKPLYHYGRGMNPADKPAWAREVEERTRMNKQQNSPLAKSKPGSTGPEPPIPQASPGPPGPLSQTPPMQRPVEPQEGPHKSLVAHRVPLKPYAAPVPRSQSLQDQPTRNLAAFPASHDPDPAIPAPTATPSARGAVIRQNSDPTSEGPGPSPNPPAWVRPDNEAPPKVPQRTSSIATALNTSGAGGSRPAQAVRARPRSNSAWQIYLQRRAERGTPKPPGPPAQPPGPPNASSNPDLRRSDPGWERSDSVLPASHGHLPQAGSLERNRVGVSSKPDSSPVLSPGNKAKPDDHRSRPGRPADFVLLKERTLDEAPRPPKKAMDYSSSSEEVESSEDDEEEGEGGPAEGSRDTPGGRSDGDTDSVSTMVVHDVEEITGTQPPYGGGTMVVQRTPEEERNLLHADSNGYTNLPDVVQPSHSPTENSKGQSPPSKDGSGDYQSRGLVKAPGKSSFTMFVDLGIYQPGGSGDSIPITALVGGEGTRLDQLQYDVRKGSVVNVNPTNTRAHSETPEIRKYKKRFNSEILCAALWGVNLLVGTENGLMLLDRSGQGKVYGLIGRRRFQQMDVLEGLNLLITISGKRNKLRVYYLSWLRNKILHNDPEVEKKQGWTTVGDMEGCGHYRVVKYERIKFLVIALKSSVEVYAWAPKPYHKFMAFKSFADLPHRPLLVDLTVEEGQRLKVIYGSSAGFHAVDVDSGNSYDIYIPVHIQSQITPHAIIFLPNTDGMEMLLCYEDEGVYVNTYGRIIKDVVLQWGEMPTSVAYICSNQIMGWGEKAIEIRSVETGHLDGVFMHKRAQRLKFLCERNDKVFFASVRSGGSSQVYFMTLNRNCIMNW
Chain of BTK (Q06187 whole entry): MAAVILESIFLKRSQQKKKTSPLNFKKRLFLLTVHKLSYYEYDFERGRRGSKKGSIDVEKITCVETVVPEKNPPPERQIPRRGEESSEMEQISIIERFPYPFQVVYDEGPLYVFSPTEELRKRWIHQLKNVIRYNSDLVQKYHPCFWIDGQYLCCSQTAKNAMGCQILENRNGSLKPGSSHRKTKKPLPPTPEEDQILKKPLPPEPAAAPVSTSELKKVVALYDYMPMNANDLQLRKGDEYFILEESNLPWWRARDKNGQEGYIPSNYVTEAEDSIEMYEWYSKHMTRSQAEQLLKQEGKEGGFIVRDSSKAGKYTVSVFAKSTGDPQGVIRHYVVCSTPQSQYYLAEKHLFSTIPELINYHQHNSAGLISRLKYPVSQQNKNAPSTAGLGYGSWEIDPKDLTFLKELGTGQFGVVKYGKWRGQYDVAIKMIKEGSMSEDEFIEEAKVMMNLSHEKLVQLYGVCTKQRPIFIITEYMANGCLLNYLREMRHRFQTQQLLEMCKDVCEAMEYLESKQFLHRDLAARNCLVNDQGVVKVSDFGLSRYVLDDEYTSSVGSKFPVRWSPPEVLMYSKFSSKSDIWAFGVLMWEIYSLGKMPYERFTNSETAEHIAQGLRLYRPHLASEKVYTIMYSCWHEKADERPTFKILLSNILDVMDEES
T4 sequence (P09619 33-1106): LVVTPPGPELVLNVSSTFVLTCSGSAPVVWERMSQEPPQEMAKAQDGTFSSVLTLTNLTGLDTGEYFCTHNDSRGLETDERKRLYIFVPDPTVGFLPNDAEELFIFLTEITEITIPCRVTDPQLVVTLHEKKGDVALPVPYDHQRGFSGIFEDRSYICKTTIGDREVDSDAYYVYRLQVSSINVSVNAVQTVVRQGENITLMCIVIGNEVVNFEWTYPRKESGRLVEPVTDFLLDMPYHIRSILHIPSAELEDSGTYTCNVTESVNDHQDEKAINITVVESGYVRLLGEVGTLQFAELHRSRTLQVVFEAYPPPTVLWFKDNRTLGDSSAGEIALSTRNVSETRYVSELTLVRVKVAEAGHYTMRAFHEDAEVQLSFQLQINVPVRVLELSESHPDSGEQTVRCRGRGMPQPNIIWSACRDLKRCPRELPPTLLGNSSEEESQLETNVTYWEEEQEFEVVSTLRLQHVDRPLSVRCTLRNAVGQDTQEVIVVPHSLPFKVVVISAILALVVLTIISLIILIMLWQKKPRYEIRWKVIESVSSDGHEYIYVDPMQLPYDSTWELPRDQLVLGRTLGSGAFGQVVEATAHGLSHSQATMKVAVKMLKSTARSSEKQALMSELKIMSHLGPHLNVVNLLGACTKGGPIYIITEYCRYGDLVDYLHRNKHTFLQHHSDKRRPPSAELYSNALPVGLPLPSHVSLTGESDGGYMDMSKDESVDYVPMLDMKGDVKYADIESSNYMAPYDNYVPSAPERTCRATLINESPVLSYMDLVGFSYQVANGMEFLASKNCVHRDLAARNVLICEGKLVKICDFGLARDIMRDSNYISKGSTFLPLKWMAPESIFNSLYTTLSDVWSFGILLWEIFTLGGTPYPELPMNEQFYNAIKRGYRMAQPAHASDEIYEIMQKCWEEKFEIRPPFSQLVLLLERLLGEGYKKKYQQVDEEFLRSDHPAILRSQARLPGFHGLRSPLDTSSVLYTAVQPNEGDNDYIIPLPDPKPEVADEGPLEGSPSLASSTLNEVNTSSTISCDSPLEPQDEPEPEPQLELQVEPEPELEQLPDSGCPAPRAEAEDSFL
Chain of JAK3 (P52333 814-1124 limits assumed): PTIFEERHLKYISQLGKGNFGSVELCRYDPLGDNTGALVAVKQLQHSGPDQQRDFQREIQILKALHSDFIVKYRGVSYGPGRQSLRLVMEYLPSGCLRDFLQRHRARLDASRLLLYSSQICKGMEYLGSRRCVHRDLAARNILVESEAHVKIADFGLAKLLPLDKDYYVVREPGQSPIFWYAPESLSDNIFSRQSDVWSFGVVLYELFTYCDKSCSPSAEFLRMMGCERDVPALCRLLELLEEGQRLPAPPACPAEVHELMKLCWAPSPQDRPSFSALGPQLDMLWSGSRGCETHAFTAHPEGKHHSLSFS

Compound: Cc1c(NC(=O)c2ccc(C(C)(C)C)cc2)cccc1-c1cn(C)c(=O)c(Nc2ccc(C(=O)N3CCOCC3)cc2)n1 [CGI-1746]
displacement of control ligand, CASK (CASK): 69% | displacement of control ligand, MINK (MINK; 1 μM): 77% | Kd (MINK; read-out: Kd MINK1): 40 µM | displacement of control ligand, NEK11 (NEK11): 59% | displacement of control ligand, PDGFRB (PDGFRB): 59% | IC50 (BMX [1]): 1.87 µM

Kd (BTK): 0.00086 µM | selectivity for BTK over TEC, BMX (BTK; kinases inhibited the most next to BTK): > 1000 fold | Kd (JAK3): 14 µM | Kd (TEC): 2.4 µM | Kd (BMX [2]): 1.3 µM
Compound: C=CC(=O)Nc1cccc(Nc2nc(-c3cccc(-n4ncc5cc(C(C)(C)C)cc(F)c5c4=O)c3CO)cn(C)c2=O)c1 [CY-130526]

Compound: C=CC(=O)N1CCCC(n2nc(-c3ccc(Oc4ccccc4)cc3)c3c(N)ncnc32)C1 (stereo not drawn) [PCI-32765]
course of arthritis (arthritis [3]): can reverse | level of circulating autoantibodies (arthritis [3]): reduces | auto-antibody production and development of kidney disease [4]: inhibited

Compound: CN1CCN(c2ccc(Nc3cc(-c4cccc(-n5ccc6cc(C7CC7)cc(F)c6c5=O)c4CO)cn(C)c3=O)nc2)CC1 [RN-486]
IC50 [5]: 0.017 µM | IC50 [6]: 0.004 µM | IC50 [7]: 0.0292 µM | inhibition of ex vivo anti-IgD stimulated CD69 expression (CD69 expression; 3 and 6 h postdose, all doses): completely inhibited | inhibition of ex vivo anti-IgD stimulated CD69 expression (CD69 expression; 24 h postdose): 50-80% | inhibition of arthritis as measured by clinical scores (arthritis [8]): complete inhibition | disease progression (arthritis [9]; mCIA and mCAIA models): dose-dependently inhibits | progression of disease (arthritis [9]; therapeutic mode, 30 mg/kg): did not show progression of disease | effect in blocking hypersensitive immune responses [10]: 91% | effect with low dose methotrexate [11]: additive effects
